# Results as given in patent publication US5215979A, “16,17-acetalsubstituted pregnane 21-oic acid derivatives” (priority 1985, dated 1993).
# “And” between values parts separate entries of the source, which are not always exact repeats. Equal entries are not always repeated. Where two headings read alike, the source gives them in different places.
# What was measured:
# [1] = in vivo; cited from earlier work
# [2] = cited from earlier work; for Plasma half life: after absorption of inhaled GCS; for Site of inactivation (in words): after absorption
# [3] = system: thymus; assay: Thymus weight recorded in the Sephadex model (systemic effect); assay type: in vivo, Sprague-Dawley rats; conditions: for Thymus involution % (dose mg/kg): relative to Sephadex control group
# Procedure: (§1) The differentiation between glucocorticosteroid action in the treated lung region and outside this area has been tested by the following test protocol. Sprague-Dawley rats (225 g) were slightly anesthetized with ether and the glucocorticosteroid test preparation in a volume of 0.5 ml/kg was instilled into just the left lung lobe. […] Thirty minutes later, a suspension of Sephadex (5 mg/kg in a volume of 1 ml/kg) was instilled in the trachea well above the bifurcation so that the suspension reached both the left and right lung lobes. Twenty hours later the rats were killed and the left and right lung lobes were dissected out and weighed separately. Also the thymus weight was recorded. Control groups got vehicle instead of glucocorticosteroid preparation and saline instead of Sephadex suspension to determine the weight of non-drug protected Sephadex edema and the normal lung weight, respectively. For each glucocorticosteroid preparation at least 3 doses within the range 0.01-10 mg/kg and with each ≥6 parallels/dose were tested. The glucocorticosteroids were suspended in a vehicle of CMC-Na 0.75%, Tween 80 0.04%, and 0.7% NaCl ad 100%.
# [4] = system: interstitial lung edema; assay: Sephadex model in the rat: lung edema after Sephadex bead instillation, glucocorticosteroid instilled in left lung lobe; assay type: in vivo, Sprague-Dawley rats; conditions: for ED50: Rattus norvegicus, read-out: ED50 left lung lobe (required glucocorticosteroid dose to reduce the edema by 50%); for Selectivity ratio ED50 right lung / ED50 left lung: instillation into left lung lobe, higher = more selective for application site
# From the text: The selectivity for anti-inflammatory effect at the application site in the lung has been investigated in a model system in the rat after intrabronchial instillation of the glucocorticosteroid.
# Instillation of Sephadex beads into rat lung leads to bronchial and alveolar inflammation. This provokes interstitial lung edema, which increases the lung weight and the inflammation can be graded as the increase of the lung weight compared to a vehicle-instilled control group. The lung edema formation can be counteracted by pretreatment with glucocorticosteroids, preferably the local administration as intrabronchial installation or as inhalation. Ideally, an anti-inflammatory action should be obtained only at the site of glucocorticosteroid application in the lung but not outside this area, as this in long term treatment can lead to therapy limiting systemic side effects.
# as §1
# For a strict local anti-inflammatory treatment of airway diseases the ideal profile of a compound is that it should counteract the inflammation in the locally treated left lung lobe, but not in the right lung half, which is anticipated to be reached by glucocorticosteroid first via the systemic circulation (after absorption from the left lung). The ratio between the required ED50 's (doses reducing the edema by 50%) in the right and left lung halves, respectively, can be used as a parameter for estimation of the selective activity for the application site. For an ideal glucocorticosteroid this selectivity ratio should be high.
# [5] = cited from earlier work; for Unwanted GCS actions within the general circulation (in words): highest of the recommended doses for inhalation; for Safety margin (in words): inhaled GCS, highest recommended doses for inhalation
# [6] = compared with budesonide or BDP; cited from earlier work
# [7] = intrabronchial instillation into left lung lobe 30 min before Sephadex, lungs weighed 20 h later
SMILES,"ED50 [4, 7] [mg/kg]",Selectivity ratio ED50 right lung / ED50 left lung [4],Thymus involution % (dose mg/kg) ([3]; dose 10 mg/kg) [%],also measured
CCCC1O[C@@H]2C[C@H]3[C@@H]4CCC5=CC(=O)C=C[C@]5(C)[C@H]4[C@@H](O)C[C@]3(C)[C@]2(C(=O)CO)O1 (some centres unmarked) [Budesonide],0.2,~ 1.5 and 1.4,–,Selectivity for the application within airways (in words) [1]: low selectivity; Plasma half life [2]: ≥ 2 h; Site of inactivation (in words) [2]: inactivated mainly in the liver; Thymus involution % (dose mg/kg) ([3]; dose 0.3 mg/kg): 22%; Selectivity for activity in the locally treated left lung lobe (in words) ([4]; compared with budesonide and FCB): does not reach any selectivity for the application site in lung; Unwanted GCS actions within the general circulation (in words) [5]: unwanted GCS actions within the general circulation have been reported; Safety margin (in words) [5]: rather narrow safety margin
"CCC[C@@H]1O[C@@H]2C[C@H]3[C@@H]4C[C@H](F)C5=CC(=O)C=C[C@]5(C)[C@@]4(F)[C@@H](O)C[C@]3(C)[C@]2(C(=O)C(=O)OC)O1 [Example 1, methyl (22R)-16α,17α-butylidenedioxy-6α, 9α-difluoro-11β-hydroxy-3,20-dioxopregna-1,4-diene-21-oate]",1.5,6.0,-3,Effect on thymus weight (in words) ([3]; dose 10 mg/kg): do not at all affect the thymus weight
"CCC[C@@H]1O[C@@H]2C[C@H]3[C@@H]4C[C@H](F)C5=CC(=O)C=C[C@]5(C)[C@@]4(F)[C@@H](O)C[C@]3(C)[C@]2(C(=O)C(=O)OCC)O1 [Example 3, ethyl (22R)-16α,17α-butylidenedioxy-6α,9α-difluoro-11β-hydroxy-3, 20-dioxopregna-1,4-diene-21-oate]",1.7,5.9,15,–
"CCCOC(=O)C(=O)[C@@]12O[C@H](CCC)O[C@@H]1C[C@H]1[C@@H]3C[C@H](F)C4=CC(=O)C=C[C@]4(C)[C@@]3(F)[C@@H](O)C[C@@]12C [Example 4, n-propyl (22R)-16α,17α-butylidenedioxy-6α,9α-difluoro-11β-hydroxy-3, 20-dioxopregna-1,4-diene-21-oate]",< 1,> 10,6,–
"CCC[C@@H]1O[C@@H]2C[C@H]3[C@@H]4C[C@H](F)C5=CC(=O)C=C[C@]5(C)[C@@]4(F)[C@@H](O)C[C@]3(C)[C@]2(C(=O)C(=O)OC(C)C)O1 [Example 5, isopropyl (22R)-16α,17α-butylidenedioxy-6α,9α-difluoro-11β-hydroxy-3, 20-dioxopregna-1,4-diene-21-oate]",5,10.0,-1,Effect on thymus weight (in words) ([3]; dose 10 mg/kg): do not at all affect the thymus weight
"CCCCOC(=O)C(=O)[C@H]1[C@H](C)C[C@H]2[C@@H]3C[C@H](F)C4=CC(=O)C=C[C@]4(C)[C@H]3[C@@H](O)C[C@@]21C [FCB, fluocortin butyl ester]",–,2-3 and 2.5,6,Half life time in plasma (in words) ([2]; compared with budesonide): as long half life time in plasma as budesonide; ED50 ([4]; 20 h): 10 mg/kg; Potency (in words) [6]: lower potency
"CCC(=O)OCC(=O)[C@@]1(OC(=O)CC)[C@@H](C)C[C@H]2[C@@H]3CCC4=CC(=O)C=C[C@]4(C)[C@@]3(Cl)[C@@H](O)C[C@@]21C [beclomethasone 17α, 21-dipropionate]",–,–,–,Plasma half life [2]: ≥ 2 h; Site of inactivation (in words) [2]: inactivated mainly in the liver; Unwanted GCS actions within the general circulation (in words) [5]: unwanted GCS actions within the general circulation have been reported; Safety margin (in words) [5]: rather narrow safety margin
